Source: ChEMBL document CHEMBL5532720, “A Potent Solution for Tumor Growth and Angiogenesis Suppression via an ELR+CXCL-CXCR1/2 Pathway Inhibitor” (ACS Med Chem Lett, 2024)
Activity calls are given as the source filed them. No cut-off for these calls is given here.

What was measured:
[1] = system: A498; experiment: Antiproliferative activity against human A498 cells incubated for 48 hrs by XTT assay; type: functional, cell-based; details: A498, 48 h
[2] = system: RCC4; experiment: Antiproliferative activity against human RCC4 cells incubated for 48 hrs by XTT assay; type: functional, cell-based; details: RCC4, 48 h
[3] = system: 786-0; experiment: Antiproliferative activity against human 786-0 cells incubated for 48 hrs by XTT assay; type: functional, cell-based; details: 786-0, 48 h
[4] = Antiproliferative activity against human Cisplatin and radiotherapy resistant CAL27RR cells incubated for 48 hrs by XTT assay; type: functional, cell-based
[5] = system: CAL-27; experiment: Antiproliferative activity against human CAL-27 cells incubated for 48 hrs by XTT assay; type: functional, cell-based; details: CAL-27, 48 h
[6] = Antiproliferative activity against human Sunitinib-resistant 786-R cells incubated for 48 hrs by XTT assay; type: functional, cell-based
[7] = system: CAL-33; experiment: Antiproliferative activity against human CAL-33 cells incubated for 48 hrs by XTT assay; type: functional, cell-based; details: CAL-33, 48 h
[8] = Antiproliferative activity against human Cisplatin and radiotherapy resistant CAL33RR cells incubated for 48 hrs by XTT assay; type: functional, cell-based
[9] = system: A498; experiment: Inhibition of CXCL8-induced cell migration in human A498 cells at 0.5 uM incubated for 24 hrs by crystal violet staining based analysis relative to control; type: functional
[10] = system: A498; experiment: Inhibition of cell invasion in human A498 cells cultured as 3D spheroids at 5 uM measured after 7 days by light microscopic imaging analysis relative to control; type: functional; details: A498, 168 h, time 7 day
[11] = system: A498; experiment: Inhibition of cell invasion in human A498 cells cultured as 3D spheroids at 5 uM measured after 7 days by light microscopic imaging analysis; type: functional, cell-based; details: time 7.0 day

| SMILES | IC50 [1] [µM] | IC50 [2] [µM] | IC50 [3] [µM] | IC50 [4] [µM] | IC50 [5] [µM] | IC50 [6] [µM] | IC50 [7] [µM] | IC50 [8] [µM] | inhibition at 0.5 µM [9] [%] | inhibition at 5 µM [10] [%] | inhibition [11] |
| --- | --- | --- | --- | --- | --- | --- | --- | --- | --- | --- | --- |
| CCOc1ccc2nc(NC(=O)Nc3cc(Cl)cc(Cl)c3)sc2c1 | > 25 | > 25 | > 25 | 20 | > 25 | > 25 | 15 | > 25 |  |  |  |
| Cc1ccc(NC(=O)Nc2nc3ccc([N+](=O)[O-])cc3s2)cc1 | 15 | 10 | 5 | 4 | 7 | 5 | 7 | 7 |  |  |  |
| O=C(Nc1cccc(Cl)c1)Nc1nc2ccc([N+](=O)[O-])cc2s1 |  | 5 |  | 2 | 3 | 2.5 | 2 | 3 | > 50 | > 75 |  |
| O=C(Nc1ccc(Br)cc1)Nc1nc2ccc([N+](=O)[O-])cc2s1 | 2.5 | 7 | 5 | 2.5 | 5 | 5 | 2 | 5 | > 50 | > 75 |  |
| CS(=O)(=O)Nc1ccc2nc(NC(=O)Nc3cccc(Cl)c3)sc2c1 | > 25 | > 25 | > 25 | > 25 | > 25 | > 25 | > 25 | > 25 |  |  |  |
| CCOc1ccc2nc(NC(=O)Nc3cccc(Cl)c3)sc2c1 | > 25 | > 25 | > 25 | 20 | > 25 | > 25 | 4 | > 25 |  |  |  |
| CC(=O)Nc1ccc2nc(NC(=O)Nc3cccc(Cl)c3)sc2c1 | 25 | > 25 | > 25 | 7 | > 25 | 25 | 20 | > 25 |  |  |  |
| O=C(Nc1nc2ccc([N+](=O)[O-])cc2s1)Nc1ccccc1Br | 20 | 25 | 15 | 25 | > 25 | 14 | 8 | > 25 |  |  |  |
| Cc1nn(C)cc1-c1ccc2nc(NC(=O)Nc3cccc(Cl)c3)sc2c1 | 5 | 8 | 4 | 6 | 7 | 8 | 6 | 7 |  |  | Active |
| O=C(Nc1cccc(Cl)c1)Nc1nc2ccc(-c3cccc4ccccc34)cc2s1 | 5 | 8 | 7 | > 25 | > 25 | 10 | 12 | > 25 |  |  | inactive |
| O=C(Nc1cccc(Cl)c1)Nc1nc2ccc(-c3cccs3)cc2s1 | > 25 | > 25 | > 25 | > 25 | > 25 | > 25 | > 25 | > 25 |  |  |  |
| O=C(Nc1cccc(Cl)c1)Nc1nc2ccc(-c3ccccn3)cc2s1 | 12 | 25 | 15 | > 25 | > 25 | 8 | > 25 | > 25 |  |  |  |
| O=C(Nc1cccc(Cl)c1)Nc1nc2ccc(Br)cc2s1 | > 25 | > 25 | > 25 | > 25 | > 25 | > 25 | > 25 | > 25 |  |  |  |
| O=C(Nc1cccc(Cl)c1)Nc1nc2ccc(-c3ccoc3)cc2s1 | > 10 | > 10 | > 10 | > 10 | > 10 | > 10 | > 10 | > 10 |  |  |  |
| Nc1ccc2nc(NC(=O)Nc3cccc(Cl)c3)sc2c1 | 20 | 20 | 20 | 20 | > 25 | > 25 | > 25 | > 25 |  |  |  |
| O=C(Nc1cccc(Cl)c1)Nc1nc2ccc([N+](=O)[O-])cc2o1 | 22 | 25 | 20 | > 25 | > 25 | > 25 | > 25 | 12 |  |  |  |

| SMILES | IC50 [1] [µM] | IC50 [2] [µM] | IC50 [3] [µM] | IC50 [4] [µM] | IC50 [5] [µM] | IC50 [6] [µM] | IC50 [7] [µM] | IC50 [8] [µM] | inhibition at 0.5 µM [9] [%] | inhibition at 5 µM [10] [%] | inhibition [11] |
| --- | --- | --- | --- | --- | --- | --- | --- | --- | --- | --- | --- |
| O=C(Nc1ccccc1)Nc1nc2cc([N+](=O)[O-])ccc2[nH]1 | 25 | > 25 | 25 | 15 | > 25 | > 25 | 20 | > 25 |  |  |  |
| Cc1ccc(NC(=O)Nc2nc3ccc([N+](=O)[O-])cc3o2)cc1 | 9 | 2 | 4 | 20 | 25 | 25 | 15 | 20 |  |  |  |
| Cc1noc(C)c1-c1ccc2nc(NC(=O)Nc3cccc(Cl)c3)sc2c1 | 3 | 5 | 2.5 | 2.5 | 1 | 4 | 3.5 | 3.5 |  |  | Active |
| COc1ccc(NC(=O)Nc2nc3ccc([N+](=O)[O-])cc3s2)cc1 | 20 | 20 | 25 | > 25 | > 25 | 25 | > 25 | > 25 |  |  |  |
| Cc1ccccc1NC(=O)Nc1nc2ccc([N+](=O)[O-])cc2s1 | 6 | 10 | 8 | 4 | 4 | 6 | 4 | 4 |  |  |  |
| O=C(Nc1ccc(Cl)cc1)Nc1nc2ccc([N+](=O)[O-])cc2s1 | 3 | 3 | 2 | 4 | 5 | 5 | 2.5 | 2 | > 50 | > 75 |  |
| O=C(Nc1cccc(Cl)c1)Nc1nc2ccc(-c3ccsc3)cc2s1 | > 25 | > 25 | > 25 | > 25 | > 25 | > 25 | > 25 | > 25 |  |  |  |
| O=C(Nc1cccc(Cl)c1)Nc1nc2cc([N+](=O)[O-])ccc2[nH]1 | 8 | 3 | 4 | 10 | 25 | 4 | 15 | 25 |  |  |  |
| Cc1ccc(-c2ccc3nc(NC(=O)Nc4cccc(Cl)c4)sc3c2)s1 |  | > 10 | > 10 | > 10 | > 10 | > 10 | > 10 | > 10 |  |  |  |
| Cn1cc(-c2ccc3nc(NC(=O)Nc4cccc(Cl)c4)sc3c2)cn1 | > 10 | > 10 | > 10 | > 10 | 7 | > 10 | > 10 | > 10 |  |  |  |
| O=C(Nc1nc2ccc([N+](=O)[O-])cc2s1)Nc1ccccc1Cl | 6 | 9 | 7 | 7 | 8 | 10 | 8 | 7 |  |  |  |
| O=C(Nc1ccccc1)Nc1nc2cc([N+](=O)[O-])ccc2o1 | > 25 | > 25 | > 25 | > 25 | > 25 | > 25 | > 25 | > 25 |  |  |  |
| O=C(Nc1ccccc1)Nc1nc2ccc([N+](=O)[O-])cc2s1 | 3 | 5 | 5 | 4 | 25 | 5 | 6 | 25 |  |  |  |
| O=C(Nc1cccc(Cl)c1)Nc1nc2ccc(-c3ccco3)cc2s1 | > 25 | > 25 | > 25 | > 25 | > 25 | > 25 | > 25 | > 25 |  |  |  |
| O=C(Nc1cccc(Cl)c1)Nc1nc2cc([N+](=O)[O-])ccc2o1 | 25 | 25 | 25 | > 25 | > 25 | > 25 | > 25 | > 25 |  |  |  |
